Results from article PMC7277541, “Antimicrobial and Antifungal Activities of Terpene-Derived Palladium Complexes” (Antibiotics, 2020).
Values after ≈ are worked out from the molar mass of the structure shown. Values joined by “and” are separate entries in the source; they are usually repeats but may differ in a detail not shown here. Equal values may be shown once.

What was measured:
[1] = tested on: S. aureus (MRSA) ATCC 43300; experiment: Antibacterial MIC assay, S. aureus (MRSA); type: cell-based, Staphylococcus aureus; settings: CAMHB, 18 h, growth inhibited by ≥ 80%, range tested 0.25 to 32 μg/mL, n = 2
Experimental: (§1) Dry compounds were dissolved in dimethyl sulfoxide (DMSO), and serially diluted 2-fold to produce an 8-point dose response with DMSO/water and then added into microtiter plates with a final DMSO concentration of 0.5%, providing a concentration range of 0.25 to 32 μg/mL. Screening against bacteria and yeasts for antimicrobial activity and toxicity against mammalian cells was performed in duplicate (n = 2).
For the bacterial assays, each bacterial strain was cultured in Cation-Adjusted Mueller Hinton Broth (CAMHB; Bacto Laboratories 212322) at 37 °C overnight. Bacterial strains tested were methicillin resistant S. aureus (methicillin-resistant Staphylococcus aureus - MRSA) ATCC 43300, E. coli ATCC 25922, K. pneumoniae K6/ESBL ATCC 700603, P. aeruginosa ATCC 27853, A. baumannii ATCC 19606. A sample of each culture was then diluted 40-fold in fresh CAMHB and incubated at 37 °C for 1.5–3 h. The resultant mid-log phase cultures were diluted with CAMHB (CFU/mL measured by OD600), then added to each well of the compound-containing plates (384-well non-binding surface (NBS) plates; Corning CLS3640), giving a final cell density of 5 × 10^5 CFU/mL and a total volume of 50 μL. Plates were covered and incubated at 37 °C for 18 h without shaking. Inhibition of bacterial growth was determined by measuring absorbance at 600 nm (OD600), using media only as negative control and bacteria without inhibitors as positive control. MIC values were determined as the lowest concentration at which the growth was inhibited by ≥ 80% (equivalent to no visible growth by eye). Colistin sulfate (Sigma Aldrich, Castle Hill, Australia C4461) and vancomycin HCl (Sigma Aldrich, 861987) were used as positive inhibitor controls on each plate for Gram-negative and Gram-positive bacteria, respectively.

C. albicans ATCC 90028 = experiment: Antifungal MIC assay, C. albicans; type: cell-based, Candida albicans; settings: YNB, 35 °C, 36 h, growth inhibited ≥ 80%; range tested 0.25 to 32 μg/mL; n = 2
Experimental: as §1, with “All screened compounds were > 95% purity as determined by NMR. Dry” for “Dry”
For the fungal assays, yeast strains C. neoformans var. grubii H99 ATCC 208821 and C. albicans ATCC 90028 were cultured for 3 days on Yeast Extract-Peptone Dextrose (YPD; Becton Dickinson 242720) agar at 30 °C. A yeast suspension of 1 × 10^6 to 5 × 10^6 CFU/mL (as determined by OD530) was prepared from five colonies form the agar plates, and subsequently diluted with Yeast Nitrogen Base media (YNB; Becton Dickinson 233520), and added to each well of the compound containing plates (384-well plates, NBS; Corning CLS3640) giving a final cell density of 2.5 × 10^3 CFU/mL and a total volume of 50 μL. Plates were covered and incubated at 35 °C for 36 h without shaking. Growth inhibition of C. albicans was determined measuring absorbance at 630 nm (OD630), while the growth inhibition of C. neoformans was determined measuring the difference in absorbance between 600 and 570 nm (OD600-570), after the addition of resazurin (0.001% final concentration; Sigma R7017) and incubation at 35 °C for 2 h, using media only as negative control and fungi without inhibitors as positive control. MIC values were determined as the lowest concentration at which the growth was inhibited at ≥ 80% (equivalent to no visible growth by eye). Fluconazole (Sigma Aldrich, F8929) was used as a positive inhibitor control on each plate for both strains.

[2] = tested on: C. neoformans var. grubii H99 ATCC 208821; experiment: Antifungal MIC assay, C. neoformans; type: cell-based, Cryptococcus neoformans; settings: 35 °C, 36 h, resazurin, growth inhibited ≥ 80%, range tested 0.25 to 32 μg/mL; for Minimum inhibitory concentration (MIC) C. neoformans ATCC 208821: YNB, n = 2
Experimental: Screening against bacteria and yeasts for antimicrobial activity and toxicity against mammalian cells was performed in duplicate (n = 2). […] Becton Dickinson 242720) agar at 30 °C. A yeast suspension of 1 × 10^6 to 5 × 10^6 CFU/mL (as determined by OD530) was prepared from five colonies form the agar plates, and subsequently diluted with Yeast Nitrogen Base media (YNB; Becton Dickinson 233520), and added to each well of the compound containing plates (384-well plates, NBS; […] Plates were covered and incubated at 35 °C for 36 h without shaking. […] Fluconazole (Sigma Aldrich, F8929) was used as a positive inhibitor control on each plate for both strains.

[3] = tested on: human embryonic kidney cells (HEK293, ATCC CRL-1573); experiment: Cytotoxicity assay (resazurin); type: cell-based; settings: HEK293, 20 h incubation
Experimental: Screening against bacteria and yeasts for antimicrobial activity and toxicity against mammalian cells was performed in duplicate (n = 2). […] HEK293 cells were counted manually in a Neubauer hemocytometer and added to compound-containing plates (384-well plates, tissue culture treated (TC); Corning CLS3712) giving a final density of 5000 cells/well in a total volume of 50 μL, using Dulbecco's Modified Eagle Medium (DMEM; Life Technologies 11995-073) with 10% Fetal Bovine Serum (FBS; GE SH30084.03). […] Sigma R7017) and after further incubation for 3 h at 37 °C in 5% CO2. Media only was used as negative control and cells without inhibitors as positive growth control. CC50 (concentration at 50% cytotoxicity) values were calculated by curve fitting the inhibition values vs. log(concentration) using a sigmoidal dose-response function, with variable fitting values for bottom, top and slope. Tamoxifen (Sigma Aldrich, Australia T5648) was used as positive inhibitor control on each plate. Selectivity indices (SI) were calculated by dividing the CC50 value (μg/mL) by the MIC value (μg/mL) for a given bacterial or fungal strain.

[4] = tested on: human red blood cells (HRBC); experiment: Haemolysis assay; type: cell-based; settings: 1 h at 37 °C
Experimental: as §1, with “All screened compounds were > 95% purity as determined by NMR. Dry” for “Dry”
Hemolytic activity was assessed against human red blood cells (HRBC), with data presented as HC10, corresponding to the concentration of the compound causing 10% hemolysis. Human whole blood (Australian Red Cross) was washed three times with 3 volumes of 0.9% NaCl and resuspended in a concentration of 0.5 × 10^8 cells/mL, determined by manual cell count in a Neubauer hemocytometer. Washed cells were added to compound containing plates (384-well polypropylene plates (PP); Corning 3657) for a final volume of 50 μL. The plate was shaken with incubation for 1 h at 37 °C. After incubation, the plates were centrifuged at 1000× g for 10 min to pellet cells and debris. Supernatant (25 μL) was then transferred to reading plates (384-well, polystyrene plated (PS), Corning CLS3680), with hemolysis determined by measuring the supernatant absorbance at […] (OD405), using cells without inhibitors as negative control and cells with 1% Triton X-100 (Sigma T8787) as positive control. HC10 and HC50 (concentration at 10% and 50% hemolysis, respectively) were calculated by curve fitting the inhibition values vs. log(concentration) using a sigmoidal dose-response function with variable fitting values for top, bottom and slope. Melittin (Sigma M2272) was used as positive hemolytic control on each plate. Human blood was sourced from the Australian Red Cross Blood Service. Selectivity indices (SI) were calculated by dividing the HC10 value (μg/mL) by the MIC value (μg/mL) for a given bacterial or fungal strain.

Row | Structure (SMILES) | Minimum inhibitory concentration (MIC) S. aureus ATCC 43300 [1] [µg/mL] | Minimum inhibitory concentration (MIC) C. albicans ATCC 90028 (C. albicans ATCC 90028) | Minimum inhibitory concentration (MIC) C. neoformans ATCC 208821 [2] | MIC ([2]; Cryptococcus neoformans, ATCC208821, YNB, n = 2, read-out: Minimum inhibitory concentration (MIC) C. neoformans ATCC 208821) [µg/mL] | CC50 (concentration of 50% cytotoxicity) [3] [µg/mL] | HC10 (concentration of 10% haemolysis) [4] [µg/mL]
1 | C[C@H](N=C1C[C@H]2C[C@H](C2(C)C)[C@@]1(C)O)c1cccc[c]1[Pd][Cl].C[C@H](N=C1C[C@H]2C[C@H](C2(C)C)[C@@]1(C)O)c1cccc[c]1[Pd][Cl] [Compound 1] | 4 | 1 µg/mL | 0.5 µg/mL | – | 11.9 | 3.9
2 | CC12CCC(C(=NC(c3ccccc3)c3cccc[c]3[Pd][Cl])C1=O)C2(C)C.CC12CCC(C(=NC(c3ccccc3)c3cccc[c]3[Pd][Cl])C1=O)C2(C)C (centres unmarked) [Compound 3] | 16 | 2 µg/mL | 0.5 µg/mL | – | 6.0 | –
3 | C[C@H](N[C@@H]1C[C@H]2C[C@H](C2(C)C)[C@@]1(C)O)c1cccc[c]1[Pd]([Cl])[P](c1ccccc1)(c1ccccc1)c1ccccc1 [Compound 5, (+)-trans-Chloro{(1R,2R,3R,5R)-3-((S)-1′-phenylethylamino)-2,6,6-trimethylbicyclo[3.1.1]heptane-2-ol-C,N}(triphenylphosphine)palladium(II)] | 16 | 2 µg/mL | 1 µg/mL | – | 2.9 | 5.6
4 | CC12CCC(CC1=NCCN=Cc1ccccc1[O][Pd][Cl])C2(C)C (centres unmarked) [Compound 7] | >32 | – | 4—16 μg/mL and 4 μg/mL | – | >32 | –
5 | CN(C)CCN=C1C[C@H]2C[C@H](C2(C)C)[C@@]1(C)O.[Cl][Pd][Cl] [Compound 9] | >32 | 8—16 μg/mL and 16 μg/mL | 2—4 μg/mL and 2 μg/mL | – | >32 | –
6 | CC[C@H](C)[C@H](NC(=O)CN)C(=O)NCC(=O)N[C@@H](C)C(=O)N[C@H](C(=O)N[C@@H](CC(C)C)C(=O)N[C@@H](CCCCN)C(=O)N[C@H](C(=O)N[C@@H](CC(C)C)C(=O)N[C@H](C(=O)N[C@H](C(=O)NCC(=O)N[C@@H](CC(C)C)C(=O)N1CCC[C@H]1C(=O)N[C@@H](C)C(=O)N[C@@H](CC(C)C)C(=O)N[C@H](C(=O)N[C@@H](CO)C(=O)N[C@@H](Cc1c[nH]c2ccccc12)C(=O)N[C@H](C(=O)N[C@@H](CCCCN)C(=O)N[C@@H](CCCNC(=N)N)C(=O)N[C@@H](CCCCN)C(=O)N[C@@H](CCCNC(=N)N)C(=O)N[C@@H](CCC(N)=O)C(=O)N[C@@H](CCC(N)=O)C(N)=O)[C@@H](C)CC)[C@@H](C)CC)[C@@H](C)O)[C@@H](C)O)C(C)C)C(C)C [melittin, Melittin, reference compound] | – | – | – | – | – | 2.7

Second part, led by results:

Row | Minimum inhibitory concentration (MIC) S. aureus ATCC 43300 [1] [µg/mL] | Minimum inhibitory concentration (MIC) C. albicans ATCC 90028 (C. albicans ATCC 90028) | Minimum inhibitory concentration (MIC) C. neoformans ATCC 208821 [2] | MIC ([2]; Cryptococcus neoformans, ATCC208821, YNB, n = 2, read-out: Minimum inhibitory concentration (MIC) C. neoformans ATCC 208821) [µg/mL] | Structure (SMILES) | CC50 (concentration of 50% cytotoxicity) [3] [µg/mL] | HC10 (concentration of 10% haemolysis) [4] [µg/mL]
7 | 32 | – | – | – | C[C@H](N[C@@H]1C[C@H]2C[C@H](C2(C)C)[C@@]1(C)O)c1cccc[c]1[Pd][Cl].C[C@H](N[C@@H]1C[C@H]2C[C@H](C2(C)C)[C@@]1(C)O)c1cccc[c]1[Pd][Cl] [Compound 4] | 16.6 | –
8 | 8 | 4—16 μg/mL and 8 μg/mL | 4—16 μg/mL and 4 μg/mL | – | CC(C)(C)c1cc(C=NCCN=C2C[C@H]3C[C@H](C3(C)C)[C@@]2(C)O)c([O][Pd][Cl])c(C(C)(C)C)c1 [Compound 6] | 4.5 | –
9 | >32 | 8—16 μg/mL and 8 μg/mL | 2—4 μg/mL and 4 μg/mL | – | CC1(C)[C@H]2CC(=NCCN)[C@](C)(O)[C@@H]1C2.[Cl][Pd][Cl] [Compound 8] | >32 | –
10 | >32 | 4 µg/mL | 4 µg/mL | – | CC1(C)[C@@H]2C[C@H]1[C@@](C)(O)[C@H](NCCN[C@@H]1C[C@H]3C[C@H](C3(C)C)[C@@]1(C)O)C2.[Cl][Pd][Cl] [Compound 10] | >32 | –
11 | >32 | – | – | – | CN(C)CCN=CC1=CCC2CC1C2(C)C.[Cl][Pd][Cl] (centres unmarked) [Compound 11] | 10.8 | –
12 | – | 2 µg/mL | – | – | CN(C)CCNCC1=CCC2CC1C2(C)C.[Cl][Pd][Cl] (centres unmarked) [Compound 12] | >32 | –
13 | – | – | – | 8 (≈ 26.1 µM) | OC(Cn1cncn1)(Cn1cncn1)c1ccc(F)cc1F [fluconazole, Fluconazole, reference compound] | – | –
